Experiments:
Test in all cases: relative viability (nuclei count vs DMSO), 5 days (fraction); higher = more cells survive
[1] = compound: C1COCCN1C2=NC(=NC3=C2OC4=C3C=CC=N4)C5=CC(=CC=C5)NC(=O)C6=CN=C(C=C6)N + COc1cc2c(Oc3ccc(NC(=O)C4(C(=O)Nc5ccc(F)cc5)CC4)cc3F)ccnc2cc1OCCCN1CCOCC1 [Foretinib] (partner 0.25 µM)
In short: (§1)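 Relative viability equals treated-well nuclei counts divided by vehicle-well nuclei counts. Counts came from 4× images of lung cancer cell lines grown in 1536-well plates for 5 days after pin-tool dosing on the day after seeding. Dosing used one drug alone or a fixed anchor-drug dose plus five library-drug doses (not always all listed) in √10 steps, and values are medians of duplicate plates.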

[2] = compound: Nc1ccccc1NC(=O)c1ccc(CNC(=O)OCc2cccnc2)cc1 [Entinostat] + CC(=O)Nc1cccc(-n2c(=O)n(C3CC3)c(=O)c3c(Nc4ccc(I)cc4F)n(C)c(=O)c(C)c32)c1 [Trametinib] (partner 0.02 µM)
In short: as §1

[3] = compound: CN1CCC(CNc2ccc3ncc(-c4cccc(OC(F)(F)F)c4)n3n2)CC1 [SGI-1776] + CC1(C)CCC(c2ccc(Cl)cc2)=C(CN2CCN(c3ccc(C(=O)NS(=O)(=O)c4ccc(N[C@H](CCN5CCOCC5)CSc5ccccc5)c(S(=O)(=O)C(F)(F)F)c4)cc3)CC2)C1 [Navitoclax] (partner 0.5 µM)
In short: as §1

[4] = compound: CN1CCC(CNc2ccc3ncc(-c4cccc(OC(F)(F)F)c4)n3n2)CC1 [SGI-1776] + Cc1nc(NC(=O)N2CCC[C@H]2C(N)=O)sc1-c1ccnc(C(C)(C)C(F)(F)F)c1 [Alpelisib] (partner 2 µM)
In short: as §1

Cell Line | relative viability ([1]; first compound 0.02 µM) | relative viability ([1]; first compound 0.06325 µM) | relative viability ([1]; first compound 0.2 µM) | relative viability ([1]; first compound 0.6325 µM) | relative viability ([1]; first compound 2 µM) | relative viability ([2]; first compound 0.02 µM) | relative viability ([2]; first compound 0.06325 µM) | relative viability ([2]; first compound 0.2 µM) | relative viability ([2]; first compound 0.6325 µM) | relative viability ([2]; first compound 2 µM) | relative viability ([3]; first compound 0.08 µM) | relative viability ([3]; first compound 0.8 µM) | relative viability ([3]; first compound 2.53 µM) | relative viability ([3]; first compound 8 µM) | relative viability ([4]; first compound 0.08 µM) | relative viability ([4]; first compound 0.8 µM) | relative viability ([4]; first compound 2.53 µM) | relative viability ([4]; first compound 8 µM)
LU99A | 0.824 | 0.821 | 0.75 | 0.582 | 0.497 | 0.599 | 0.615 | 0.504 | 0.471 | 0.378 | 0.903 | 0.782 | 0.898 | 0.81 | 0.614 | 0.525 | 0.552 | 0.406
NCI-H358 | – | 0.721 | 0.537 | 0.68 | 0.477 | 0.175 | 0.164 | 0.135 | 0.117 | 0.127 | – | – | – | – | 0.786 | 0.837 | 0.751 | 0.405
NCI-H522 | – | – | – | – | – | 0.812 | 0.966 | 0.799 | 0.844 | 0.841 | – | – | – | – | – | – | – | –
NCI-H650 | 1 | 1.01 | 1.06 | 1.03 | 0.919 | 1.06 | 1 | 0.917 | 0.708 | 0.487 | – | – | – | – | 1.19 | 1.04 | 1.04 | 0.921
NCI-H661 | 1 | 1.05 | 1.02 | 0.999 | 0.742 | 0.62 | 0.605 | 0.715 | 0.536 | 0.363 | – | – | – | – | 0.81 | 1.06 | 0.592 | 0.479
NCI-H1299 | 1.01 | 1.08 | 1.1 | 1.05 | 0.806 | – | – | – | – | – | 1.04 | 1.06 | 0.964 | 1.04 | 1.11 | 1.01 | 1.07 | 1.08
